From patent publication US20090247455A1, “Isolation of Inhibitors of IRES-Mediated Translation” (priority 2005, published 2009)

Tested on: HEK293 cells comprising the pcDNA3-red-HCVIRES-gpt vector
Assay: Growth of HEK293 cells with the IRES-gpt construct versus control cells in 6-thioxanthine (OD 590 nm)
Format: cell-based
Details: 100 μM, up to 9 days, OD at days 2, 6 and 9, versus control cells
Procedure: FIG. 3 is a graphical representation showing the growth of HEK293 cells comprising a construct in which a gpt gene is placed under the control of a HCV IRES or control cells grown in the presence or absence of 6-thioxanthine (100 μM). The number of days of 6-thioxanthine treatment is indicated on the X-axis. The optical density at 590 nm of the tissue culture flask containing the cells is shown on the Y-axis. […] The OD590 of cells comprising the IRES-gpt construct grown in the absence of 6-thioxanthine are represented by solid squares and dashed line. The OD590 of cells comprising the IRES-gpt construct grown in the presence of 6-thioxanthine are represented by solid squares and solid line.
Cells were also screened to determine those capable of expressing gpt under the control of HCV IRES. Briefly, transfected cells or control cells were maintained either in the absence or presence of 6-thioxanthine (100 μM) for up to 9 days. To determine any change in cell number an optical density measurement was performed at 590 nm at days 2, 6 and 9 after the addition of 6-thioxanthine to the relevant cells.

With O=c1[nH]c(=S)c2[nH]cnc2[nH]1 [6-thioxanthine] the “susceptibility of cells to 6-thioxanthine selection (optical density at 590 nm)” value was “considerably more susceptible”.
